Assay results reported in the Deep4Chem optical property database.
Each block holds one compound with its values, some of them ahead of it.

Assay: photoluminescence quantum yield (fraction); solvent given as SMILES
[1] = in O=P(c1ccccc1)(c1ccccc1)c1ccccc1Oc1ccccc1P(=O)(c1ccccc1)c1ccccc1

Compound: COC(=O)/C=C/c1ccc2ccc3cccc4ccc1c2c34
photoluminescence quantum yield (in C1CCOC1): 0.73
photoluminescence quantum yield (in C1COCCO1): 0.55
photoluminescence quantum yield (in CC#N): 0.46
photoluminescence quantum yield (in CC(C)=O): 0.51
photoluminescence quantum yield (in CCCCCC): 0.46
photoluminescence quantum yield (in CCOC(C)=O): 0.57
photoluminescence quantum yield (in CO): 0.26
photoluminescence quantum yield (in Cc1ccccc1): 0.47

photoluminescence quantum yield (in CC#N): 0.85
Compound: CCN(CC)c1ccc2cc(/C=C/c3ccccc3)c(=O)oc2c1

Compound: CC[N+]1(CC)CN2C(=N1)C(C(=O)O)=Cc1cc(F)ccc12
photoluminescence quantum yield (in O): 0.344

photoluminescence quantum yield (in CC(C)O): 0.65
photoluminescence quantum yield (in CCCCCC): 0.49
photoluminescence quantum yield (in CO): 0.6
photoluminescence quantum yield (in CS(C)=O): 0.49
photoluminescence quantum yield (in ClCCl): 0.27
Compound: COc1ccccc1-c1nc(-c2ccc(C(F)(F)F)cc2)n(-c2ccc(C)cc2)c1-c1ccccc1OC

photoluminescence quantum yield (in C1CCOC1): 0.39
Compound: CCCCn1c2ccc(C#Cc3cccs3)cc2c2c1c1c3ccc(C#Cc4cccs4)cc3n(CCCC)c1c1c3ccc(C#Cc4cccs4)cc3n(CCCC)c21

photoluminescence quantum yield (in C1CCOC1): 0.55
photoluminescence quantum yield (in CC#N): 0.49
photoluminescence quantum yield (in CCO): 0.46
photoluminescence quantum yield (in CO): 0.45
photoluminescence quantum yield (in ClCCl): 0.53
Compound: O=C1C2=C(O[B-](F)(F)[n+]3c2ccc2ccccc23)c2ccc(N3CCOCC3)c3cccc1c23

photoluminescence quantum yield (in ClCCl): 0.44
Compound: CCCCN(CCCC)c1ccc(C#Cc2cc(C#Cc3ccc(C(F)(F)F)cc3)c(C#Cc3ccc(C(F)(F)F)cc3)cc2C#Cc2ccc(N(CCCC)CCCC)cc2)cc1

photoluminescence quantum yield (in ClCCl): 0.64
Compound: CC1=C2C=CC(c3ccccc3)=[N+]2[B-](F)(F)n2c1ccc2-c1ccccc1

photoluminescence quantum yield (in CCCO): 0.65
Compound: CCOC(=O)c1ccc2c(c1)sc1c3ccc(C(=O)OCC)cc3n(C)c21

Compound: CCCCCCC(CCCCCC)N1C(=O)c2cccc3c(-c4ccc([Si](C)(C)C)cc4)ccc(c23)C1=O
photoluminescence quantum yield (in CCCCCC): 0.14
photoluminescence quantum yield (in CCCCCCCCCCCCCC): 0.18
photoluminescence quantum yield (in CCCCCCCCCCCO): 0.85
photoluminescence quantum yield (in CCCCO): 0.89
photoluminescence quantum yield (in CN(C)C=O): 0.64
photoluminescence quantum yield (in Cc1ccccc1): 0.51
photoluminescence quantum yield (in ClC(Cl)Cl): 0.79

photoluminescence quantum yield (in CCO): 0.75
Compound: CN1C(=CC=Cc2nc3nc4ccccc4nc3s2)C(C)(C)c2ccccc21

Compound: CCN(CC)c1ccc2cc(-c3cc(SC)c(C#N)c(=O)o3)c(=O)oc2c1
photoluminescence quantum yield (in C1CCOC1): 0.72
photoluminescence quantum yield (in CC#N): 0.56
photoluminescence quantum yield (in CC(C)=O): 0.67
photoluminescence quantum yield (in CCOC(C)=O): 0.8
photoluminescence quantum yield (in CN(C)C=O): 0.4
photoluminescence quantum yield (in CO): 0.55
photoluminescence quantum yield (in CS(C)=O): 0.55
photoluminescence quantum yield (in Cc1ccccc1): 0.72
photoluminescence quantum yield (in ClC(Cl)Cl): 0.66
photoluminescence quantum yield (in ClCCl): 0.81

photoluminescence quantum yield (in ClC(Cl)Cl): 0.11
Compound: O=Cc1ccc(C#CC(C#Cc2ccc(C=O)o2)=Cc2ccc(C=C(C#Cc3ccc(C=O)o3)C#Cc3ccc(C=O)o3)cc2)o1

photoluminescence quantum yield (in C1CCCCC1): 0.98
Compound: CCCC1(CCC)c2cc(-c3ccc4c(c3)C(CCC)(CCC)c3cc(-c5ccc6c(c5)C(CCC)(CCC)c5cc(C(C)(C)CC)ccc5-6)ccc3-4)ccc2-c2ccc(-c3ccc4c(c3)C(CCC)(CCC)c3cc(C(C)(C)CC)ccc3-4)cc21

photoluminescence quantum yield (in C1CCCCC1): 0.91
Compound: CCCC1(CCC)c2ccccc2-c2ccc(-c3ccc4c(c3)C(CCC)(CCC)c3cc(-c5ccc6c(c5)C(CCC)(CCC)c5ccccc5-6)ccc3-4)cc21

Compound: CCCCCCCCCCCCOc1ccc(C#Cc2ccc(C#Cc3ccc(OCCCCCCCCCCCC)c(OCCCCCCCCCCCC)c3)c3nc4c5ccccc5c5ccccc5c4nc23)cc1OCCCCCCCCCCCC
photoluminescence quantum yield (in C1CCOC1): 0.23
photoluminescence quantum yield (in Cc1ccccc1): 0.19
photoluminescence quantum yield (in ClCCl): 0.26

photoluminescence quantum yield (in ClCCl): 0.485
Compound: Cc1cc2oc3ccccc3c2c2[nH]c3ccccc3c12

Compound: F[B-]1(F)Oc2ccccc2-c2cc(-n3c4ccc(-c5ccccc5)cc4c4cc(-c5ccccc5)ccc43)cc[n+]21
photoluminescence quantum yield [1]: 0.7

photoluminescence quantum yield (in CCO): 0.017
photoluminescence quantum yield (in CO): 0.011
photoluminescence quantum yield (in O): 0.0073
photoluminescence quantum yield (in OCC(F)(F)F): 0.014
photoluminescence quantum yield (in OCCO): 0.039
Compound: NC(=O)CC[C@H](/[NH+]=C\C=C1\C=C(C(=O)O)N[C@H](C(=O)O)C1)C(=O)O

photoluminescence quantum yield (in CS(C)=O): 0.03
Compound: Brc1ccc2cc3c4ccccc4nc(-c4ccco4)c3n2c1

photoluminescence quantum yield (in CC(C)(C)O): 0.13
photoluminescence quantum yield (in CC(C)CO): 0.2
photoluminescence quantum yield (in CC(C)O): 0.2
photoluminescence quantum yield (in CCCCO): 0.22
photoluminescence quantum yield (in CCCO): 0.23
photoluminescence quantum yield (in CCO): 0.2
photoluminescence quantum yield (in CN(C)C=O): 0.02
photoluminescence quantum yield (in CNC=O): 0.14
photoluminescence quantum yield (in CO): 0.25
photoluminescence quantum yield (in NC=O): 0.43
photoluminescence quantum yield (in O): 0.11
Compound: COCCOCCOCCOc1ccc(OCCOCCOCCOC)c(C=O)c1

Compound: c1ccc2c(c1)Cc1ccccc1N2c1c2ccccc2cc2ccccc12
photoluminescence quantum yield (in Cc1ccccc1): 0.06

photoluminescence quantum yield (in ClCCl): 0.18
Compound: CCCCCCN1C(=O)c2cccc3c(-c4ccc(-c5cc(-c6ccc(C)cc6)nn5-c5ccccc5)s4)ccc(c23)C1=O

Compound: COc1ccc(-c2sc3c(-c4ccc(OC)cc4)c4n(c3c2-c2ccc(OC)cc2)[B-](F)(F)[N+]2=Cc3c(-c5ccc(OC)cc5)c5sc(-c6ccc(OC)cc6)c(-c6ccc(OC)cc6)c5n3[B-](F)(F)[N+]2=C4)cc1
photoluminescence quantum yield (in CC#N): 0.36
photoluminescence quantum yield (in CCCCCC): 0.46
photoluminescence quantum yield (in CN(C)C=O): 0.32
photoluminescence quantum yield (in Cc1ccccc1): 0.51
photoluminescence quantum yield (in ClCCl): 0.5

photoluminescence quantum yield (in c1ccccc1): 0.035
Compound: CCOC(=O)CSc1nc(C)c(C)c(C#N)c1C#N

Compound: F[B-]1(F)n2c(c3cccc4cccc2c43)=Nc2cccc(Cl)[n+]21
photoluminescence quantum yield (in C1CCOC1): 0.99
photoluminescence quantum yield (in CC#N): 0.99
photoluminescence quantum yield (in CCCCCC): 0.99
photoluminescence quantum yield (in Cc1ccccc1): 0.99
photoluminescence quantum yield (in ClCCl): 0.99

photoluminescence quantum yield (in CO): 0.37
photoluminescence quantum yield (in ClC(Cl)Cl): 0.56
photoluminescence quantum yield (in O): 0.031
Compound: COCCOCCOCCN1C(=O)c2cc(NCCOCCO)c3c4c(cc(NCCOCCO)c(c24)C1=O)C(=O)N(CCOCCOCCOC)C3=O

photoluminescence quantum yield (in CCCCCC): 0.348
Compound: COC(=O)c1c(C(=O)OC)c2ccc(C)nn2c1C

photoluminescence quantum yield (in C1CCOC1): 0.45
photoluminescence quantum yield (in CC#N): 0.31
photoluminescence quantum yield (in CC(C)O): 0.23
photoluminescence quantum yield (in CCCCO): 0.17
photoluminescence quantum yield (in CCO): 0.18
photoluminescence quantum yield (in CO): 0.18
photoluminescence quantum yield (in ClCCl): 0.32
photoluminescence quantum yield (in O): 0.41
Compound: COc1ccc2cc([C@H](C)C(=O)O)ccc2c1

Compound: CCCCCCc1ccc2c3c(ccc2c1)O[B-](c1ccccc1)(c1ccccc1)[N+](c1cc([N+]2=Cc4c(ccc5cc(CCCCCC)ccc45)O[B-]2(c2ccccc2)c2ccccc2)cc([N+]2=Cc4c(ccc5cc(CCCCCC)ccc45)O[B-]2(c2ccccc2)c2ccccc2)c1)=C3
photoluminescence quantum yield (in C1CCOC1): 0.21
photoluminescence quantum yield (in CC#N): 0.19
photoluminescence quantum yield (in Cc1ccccc1): 0.29
photoluminescence quantum yield (in ClCCl): 0.31

Compound: c1ccc(-c2nc(-c3ccccc3)nc(-c3ccc(-n4c5ccccc5c5c6c(ccc54)C4(c5ccccc5-c5ccccc54)c4ccccc4-6)cc3)n2)cc1
photoluminescence quantum yield [1]: 0.45

photoluminescence quantum yield (in C1CCOC1): 0.015
Compound: CC(C)(C)c1ccc(C2=C(c3ccc(C(C)(C)C)cc3)[Si](c3ccccc3)(c3ccccc3)c3ccccc32)cc1

photoluminescence quantum yield (in ClC(Cl)Cl): 0.37
Compound: F[B-]1(F)OC(c2ccc(C(F)(F)F)cc2)=Cc2ccc3ccccc3[n+]21

photoluminescence quantum yield (in ClCCl): 0.167
Compound: COC(=O)c1[nH]c(-c2ccccc2)c2nnc3c4ccccc4oc3c12

photoluminescence quantum yield (in ClC(Cl)Cl): 0.01
Compound: CC1=C(/C=C/c2ccccc2)C(C)=[N+]2C1=C(c1ccccc1)c1c(C)c(/C=C/c3ccccc3)c(C)n1[B-]2(F)F
